According to ChEMBL document CHEMBL4818987, “Recent advances of podophyllotoxin/epipodophyllotoxin hybrids in anticancer activity, mode of action, and structure-activity relationship: An update (2010-2020)” (Eur J Med Chem, 2020):

Tests used:
A549 [1] = assay: Potency index, ratio of etoposide IC50 to test compound IC50 for antiproliferative activity against human A549 cells; type: functional
SK-OV-3 = assay: Potency index, ratio of etoposide IC50 to test compound IC50 for antiproliferative activity against human SK-OV-3 cells; type: functional
K562 [2] = assay: Potency index, ratio of etoposide IC50 to test compound IC50 for antiproliferative activity against human K562 cells; type: functional
MCF7 [3] = assay: Potency index, ratio of etoposide IC50 to test compound IC50 for antiproliferative activity against human MCF7 cells; type: functional
HepG2 = assay: Potency index, ratio of etoposide IC50 to test compound IC50 for antiproliferative activity against human HepG2 cells; type: functional
BGC-823 [4] = assay: Potency index, ratio of etoposide IC50 to test compound IC50 for antiproliferative activity against human BGC-823 cells; type: functional
HeLa [5] = assay: Potency index, ratio of etoposide IC50 to test compound IC50 for antiproliferative activity against human HeLa cells; type: functional
MGC-803 = assay: Potency index, ratio of etoposide IC50 to test compound IC50 for antiproliferative activity against human MGC-803 cells; type: functional
K562/A02 [6] = assay: Potency index, ratio of etoposide IC50 to test compound IC50 for antiproliferative activity against human K562/A02 cells; type: functional
K562 [7] = assay: Antiproliferative activity against human K562 cells incubated for 48 hrs by MTT assay; type: functional, cell-based; details: K562, 48 h
K562/Adr [8] = assay: Potency index, ratio of etoposide IC50 to test compound IC50 for antiproliferative activity against human K562/ADM cells; type: functional
HeLa [9] = assay: Antiproliferative activity against human HeLa cells incubated for 48 hrs by MTT assay; type: functional, cell-based
K562/Adr [10] = assay: Antiproliferative activity against human K562/ADM cells incubated for 48 hrs by MTT assay; type: functional, cell-based
Huh-7 [11] = assay: Potency index, ratio of etoposide IC50 to test compound IC50 for antiproliferative activity against human Huh-7 cells; type: functional
Huh-7 [12] = assay: Antiproliferative activity against human Huh7 cells incubated for 48 hrs by MTT assay; type: functional, cell-based; details: Huh-7, 48 h
MCF7 [13] = assay: Antiproliferative activity against human MCF7 cells incubated for 48 hrs by MTT assay; type: functional, cell-based; details: MCF7, 48 h
A549 [14] = assay: Antiproliferative activity against human A549 cells incubated for 48 hrs by MTT assay; type: functional, cell-based; details: A549, 48 h
BGC-823 [15] = assay: Antiproliferative activity against human BGC-823 cells incubated for 48 hrs by MTT assay; type: functional, cell-based; details: BGC-823, 48 h
SW480 [16] = assay: Antiproliferative activity against human SW480 cells incubated for 48 hrs by MTT assay; type: functional, cell-based; details: SW480, 48 h
SMMC-7721 [17] = assay: Antiproliferative activity against human SMMC-7721 cells incubated for 48 hrs by MTT assay; type: functional, cell-based; details: SMMC-7721, 48 h
SMMC-7721 [18] = assay: Potency index, ratio of cisplatin IC50 to test compound IC50 for antiproliferative activity against human SMMC7721 cells; type: functional
HL-60 [19] = assay: Antiproliferative activity against human HL-60 cells incubated for 48 hrs by MTT assay; type: functional, cell-based; details: HL-60, 48 h
HL-60 [20] = assay: Potency index, ratio of cisplatin IC50 to test compound IC50 for antiproliferative activity against human HL-60 cells; type: functional
SW480 [21] = assay: Potency index, ratio of cisplatin IC50 to test compound IC50 for antiproliferative activity against human SW480 cells; type: functional
MCF7 [22] = assay: Potency index, ratio of cisplatin IC50 to test compound IC50 for antiproliferative activity against human MCF7 cells; type: functional
A549 [23] = assay: Potency index, ratio of cisplatin IC50 to test compound IC50 for antiproliferative activity against human A549 cells; type: functional
HeLa [24] = assay: Antiproliferative activity against human HeLa cells by MTT assay; type: functional, cell-based
K562/A02 [25] = assay: Antiproliferative activity against human K562/A02 cells by MTT assay; type: functional, cell-based
K562/A02 [26] = assay: Potency index, ratio of etoposide GI50 to test compound GI50 for human K562/A02 cells; type: functional
K562 [27] = assay: Antiproliferative activity against human K562 cells by MTT assay; type: functional, cell-based
[28] = Resistance index, ratio of IC50 for human K562/AO2 cells to IC50 for human K562 cells; type: functional
K562 [29] = assay: Potency index, ratio of etoposide IC50 to test compound IC50 for human K562 cells; type: functional
HeLa [30] = assay: Potency index, ratio of etoposide IC50 to test compound IC50 for human HeLa cells; type: functional
SMMC-7721 [31] = assay: Antiproliferative activity against human SMMC-7721 cells; type: functional, cell-based
K562 [32] = assay: Antiproliferative activity against human K562 cells; type: functional, cell-based
U-251 = assay: Antiproliferative activity against human U251 cells; type: functional, cell-based
LNCaP = assay: Antiproliferative activity against human LNCaP cells; type: functional, cell-based
HFF = assay: Cytotoxicity against human HFF cells; type: cell-based
K562/Adr [33] = assay: Antiproliferative activity against human K562/ADR cells; type: functional, cell-based
SK-BR-3 = assay: Antiproliferative activity against human SK-BR-3 cells; type: functional, cell-based
L02 = assay: Cytotoxicity against human HL7702 cells; type: cell-based
HCT-116 = assay: Antiproliferative activity against human HCT116 cells; type: functional, cell-based
[34] = Selectivity index, ratio of IC50 for human HFF cells to IC50 for human A549 cells; type: toxicity; details: pooled result: one value given for 20 cell lines, strains, targets or settings, read-out: Ratio IC50

COc1cc([C@@H]2c3cc4c(cc3[C@@H](n3ccnc3)[C@H]3COC(=O)[C@H]23)OCO4)cc(OC)c1OC
5.8: Ratio IC50 (A549 [1]) | Ratio IC50 (SK-OV-3) | Ratio IC50 (K562 [2]) | Ratio IC50 (MCF7 [3]) | Ratio IC50 (HepG2) | Ratio IC50 (BGC-823 [4]) | Ratio IC50 (HeLa [5]) | Ratio IC50 (MGC-803) | Ratio IC50 (K562/A02 [6])

COc1cc([C@@H]2c3cc4c(cc3[C@@H](n3cnc([N+](=O)[O-])c3)[C@H]3COC(=O)[C@H]23)OCO4)cc(OC)c1O
8120 nM: IC50 (HeLa [9])
18.4: Ratio IC50 (K562/Adr [8])
4160 nM: IC50 (K562 [7]) | IC50 (K562/Adr [10])

COc1cc([C@@H]2c3cc4c(cc3[C@@H](Nc3ncccc3F)[C@H]3COC(=O)[C@H]23)OCO4)cc(OC)c1O
3.3: Ratio IC50 (A549 [1]) | Ratio IC50 (Huh-7 [11]) | Ratio IC50 (MCF7 [3]) | Ratio IC50 (BGC-823 [4]) | Ratio IC50 (HeLa [5])
60 nM: IC50 (Huh-7 [12]) | IC50 (MCF7 [13]) | IC50 (A549 [14]) | IC50 (BGC-823 [15])

COc1cc([C@@H]2c3cc4c(cc3[C@@H](n3cc(COC[C@H]5O[C@@H](OCc6cn([C@@H]7c8cc9c(cc8[C@@H](c8cc(OC)c(O)c(OC)c8)[C@H]8C(=O)OC[C@@H]87)OCO9)nn6)[C@H](OC(C)=O)[C@@H](OC(C)=O)[C@@H]5OC(C)=O)nn3)[C@H]3COC(=O)[C@H]23)OCO4)cc(OC)c1O
14000 nM: IC50 (SW480 [16]) | IC50 (SMMC-7721 [17]) | IC50 (HL-60 [19]) | IC50 (MCF7 [13]) | IC50 (A549 [14])
2.8: Ratio IC50 (SMMC-7721 [18]) | Ratio IC50 (HL-60 [20]) | Ratio IC50 (SW480 [21]) | Ratio IC50 (MCF7 [22]) | Ratio IC50 (A549 [23])

COc1cc([C@@H]2c3cc4c(cc3[C@@H](NCc3cc5ccccc5[nH]3)[C@H]3COC(=O)[C@H]23)OCO4)cc(OC)c1OC
1.97: Ratio IC50 [28]
1.7: Ratio IC50 (K562/A02 [26]) | Ratio IC50 (K562 [29]) | Ratio IC50 (HeLa [30])
100 nM: IC50 (HeLa [24]) | IC50 (K562 [27])
2230 nM: IC50 (K562/A02 [25])

COC(=O)c1ccc(-c2cn(CC(=O)O[C@H]3c4cc5c(cc4[C@@H](c4cc(OC)c(OC)c(OC)c4)[C@H]4C(=O)OC[C@@H]43)OCO5)nn2)cc1
565 nM: IC50 (L02)
19.6 nM: IC50 (SMMC-7721 [31]) | IC50 (K562 [32]) | IC50 (U-251) | IC50 (LNCaP) | IC50 (K562/Adr [33]) | IC50 (SK-BR-3) | IC50 (HCT-116)
195 nM: IC50 (HFF)
3.5: selectivity ratio [34]
